Entries after “also recorded” stand apart in the source; their conditions may differ.
Columns and labels:
H1299 and H1437 cells [1] = assay: qRT-PCR of YAP1 and STAT3 pathway genes after drug treatment for 72 hours; type: cell-based, human
Description: qRT-PCR. The mRNA expression level of each gene was determined by qRT-PCR. […] We quantified the β-actin mRNA level to normalize the expression levels of the targeted genes. Each sample was tested in triplicate and run three times. Each graph shown in our figures indicates the average mRNA expression level of targeted genes compared with the β-actin expression level, with standard error of mean. To determine doses of these drugs that are effective for pathway inhibition, H1299 and H1437 cells were treated with verteporfin or S3I-201 for 72 hours.

H1299 and H1437 cells [2] = assay: Immunoblotting of YAP1, STAT3 and pSTAT3 after drug treatment; type: cell-based, human
Description: Western blotting. Cells were dissolved in RIPA buffer (Thermo Fisher Scientific) supplemented with proteinase inhibitor and phosphatase inhibitor cocktails (Roche, Mannheim, Germany). After total protein lysate was electrophoretically transferred onto PVDF membrane, the membrane was blocked with 5% skim milk in 0.05% TBS-Tween buffer and incubated at 4° C. overnight with a primary antibody specific to each protein. The membrane was then probed with an appropriate secondary antibody (Cell Signaling Technology, Danvers, USA). β-actin served as an endogenous control. The primary antibodies and dilution ratios were β-actin (Sigma-Aldrich; #A2228; 1:5000), NANOG (D73G4; Cell Signaling Technology; #4903; 1:1000), OCT4 (D705Z; Cell Signaling Technology; #75463; 1:500), SOX2 (EPR3131; Abcam, Cambridge, UK; #ab92494; 1:500), STAT3 (124H6; Cell Signaling Technology; #9139; 1:2000), pSTAT3 (D3A7; Cell Signaling Technology; #9145; 1:1000) and YAP1 (EP1674Y; Abcam, #ab52771; 1:2000).
To determine doses of these drugs that are effective for pathway inhibition, H1299 and H1437 cells were treated with verteporfin or S3I-201 for 72 hours.

H1299 xenografts = assay: H1299 xenograft treatment; type: in vivo, NSG mice; conditions: verteporfin 50 mg/kg i.p. three times a week; S3I-201 5 mg/kg i.p. every day
From the text: (§1) For therapeutic experiments, 4- to 5-week-old NOD/SCID/IL2Ry−/− (NSG) mice were obtained from the Johns Hopkins Medical Institute's (Baltimore, MD) animal care facility. We injected H1299 cells (1×106) and H1437 cells (1×106), which were suspended in the mixture as described above, subcutaneously into both flanks. For the patient-derived xenograft (PDX) models, 13 PDX blocks (CTG0162, 0178, 0502, 0848, 1309, 1351, 1358, 1361, 1762, 1885, 2017, 2481, and 2708) were obtained from Champion Oncology. All these PDXs were established from primary lung adenocarcinoma tumors. The tumor tissues were cut into 4×2 mm pieces and implanted in the subcutaneous spaces of both flanks. When tumor volumes reached to 200+50 mm3, mice were randomly assigned to six experimental groups [control, chemo (cisplatin+gemcitabine), chemo+verteporfin, chemo+S3I-201, “all” (cisplatin+gemcitabine+verteporfin+S3I-201), and verteporfin+S3I-201] at 5 mice per group. Cisplatin (Sigma-Aldrich; #P4394), gemcitabine (Medkoo; #100410), S3I-201 (MedKoo; #202541), and verteporfin (Sigma-Aldrich; #1711461) were used to treat the mice. Cisplatin (2.5 mg/kg) and gemcitabine (120 mg/kg) were administrated via intraperitoneal injection once a week (22). […] Each tumor volume was measured every 3 days. Therapeutic efficacy was evaluated from percentage change of the tumor volume compared with the tumor size before treatment.

H1437 xenografts = assay: H1437 xenograft treatment; type: in vivo, NSG mice; conditions: verteporfin 50 mg/kg i.p. three times a week; S3I-201 5 mg/kg i.p. every day
From the text: as §1

MB49 derived xenograft = MB49 derived xenograft treated with STAT3 inhibitor; type: in vivo, C57BL/6 mice; conditions: for expression of CSC associated markers and CXCLs in tumor tissues: qRT-PCR
Description: In vivo xenograft assay and treatment. For in vivo xenograft, cells were suspended in 100 μL of a 1:1 mixture of serum-free DMEM and Cultrex Stem Cell Qualified Reduced Growth Factor Basement Membrane Extract (Trevigen, Gaithersburg, USA), and then injected subcutaneously into the both flanks of C57BL/6 mice for MB49/UPPL595/BBN975 cells.
YAP1 induces immunosuppression partially through IL6/STAT3 signaling and STAT3 inhibition mimics the antitumor activity of YAP1 attenuation. The present inventors recently reported that YAP1 positively regulates IL6/STAT3 signaling (38) in LUAD.

[3] = test system: H1299, H1437 and A549 cells; assay: Cell viability assay with cisplatin in YAP1/STAT3-modified cells; type: cell-based, human
Description: Cell proliferation assay and viability assay. Cell proliferation and viability were evaluated using Cell Counting Kit-8 (Dojindo Molecular Technologies). For cell proliferation assay, after cells (5×10^3/well) were seeded into 96-well plates with RPMI1640 containing 2% FBS, the optical density of each well was measured every 24 hours for 4 days. We added […] of cell counting kit-8 solution to each well 2 hours before measuring the absorbance (17). For the cell viability assay, after cells were incubated for 48 hours (5×10^3/well), they were exposed to each respective therapeutic agent for 72 hours. Cell viability for each agent was defined as the ratio of absorbance values of the treated cells to control cells (i.e., pharmacologically untreated or genetically unmodified). Absorbance values (450-630 nm) were measured by a Spectra Max 250 96-well Plate Reader (Molecular Devices). Each sample was applied to six wells, and their average rate was calculated. The therapeutic agents used here (in vitro) were cisplatin (Sigma-Aldrich; #P4394), S3I-201 (Santa Cruz Biotechnology; #sc-204304; ref. 18), and verteporfin (MedKoo; #203120).

[4] = test system: H1299, H1437 and A549 cells; assay: Apoptosis assay with cisplatin in YAP1-modified cells; type: cell-based, human; conditions: cisplatin 2 or 5 for 72 hours
Description: Apoptosis assay. Cells were incubated for 72 hours with CDDP (2 μM or 5 μM) or normal saline. Apoptosis assays were conducted using PE Annexin V Apoptosis Detection Kit with 7-AAD (BioLegend, San Diego, USA) according to manufacturer's protocol. Treated cells were analyzed by BD FACSCalibur flow cytometer (BD Biosciences, San Jose, USA).

pSTAT3 = assay: Recombinant IL6 stimulation (Western blotting); type: cell-based, human; conditions: H1299 and H1437 YAP1-sh cells, 0.1, 1, or 10 ng/mL
Description: Recombinant IL6 stimulation and neutralization of IL6. For exogenous IL6 stimulation, 5×10^5 cells were seeded in 10-cm dishes. After 48 hours, human recombinant IL6 (0.1, 1, or 10 ng/mL) from PeproTech was added to the cells. They were harvested after 48-hour incubation. To neutralize the IL6, Human/Primate IL6 Antibody (R&D Systems) was administered. We cultured 5×10^5 cells in 10-cm dishes. After 48 hours, antibody (1 mg/mL) was added to the cells. They were then harvested after 24 or 48 hours. Protein expression of each sample was evaluated by Western blotting.

## Cc1ccc(S(=O)(=O)OCC(=O)Nc2ccc(C(=O)O)c(O)c2)cc1 [S3I-201]
H1299 and H1437 cells [1]
  mRNA expression of STAT3 and its targeted genes NRP1 and PROS1: suppressed both STAT3 and its targeted genes; also recorded: inhibited mRNA expressions of not only NRP1 and PROS1 (STAT3-targeting genes) but also STAT3
H1299 and H1437 cells [2]
  pSTAT3 expression: suppressed pSTAT3 without affecting YAP1 or total STAT3 expressions; also recorded: suppressed pSTAT3 in a dose-dependent manner
H1299 xenografts
  tumor growth: inhibited growth
H1437 xenografts
  tumor growth: did not significantly affect tumor growth
MB49 derived xenograft; mouse, in vivo
  infiltration of MDSCs (GR-1) and CD8+ T cells in the TME, IHC: decreased infiltration of MDSCs (GR-1) and significantly more CD8+ T cells
  tumor growth: significant regression of the tumor growth
MB49 derived xenograft; listed as STAT3 inhibitor
  expression of CSC associated markers and CXCLs in tumor tissues: downregulate different CXCR2 associated ligands
MB49 derived xenograft; listed as STAT-3 inhibitor
  expression of CSC associated markers and CXCLs in tumor tissues: significantly decreased expression of CSC associated markers and CXCLs

## N.N.[Cl][Pt][Cl] [cisplatin]
[3]; A549 YAP1-LV cells versus control cells, 72 hours
  sensitivity to cisplatin (cell viability): relatively resistant; also recorded: higher resistance
[3]; A549 YAP1-LV/STAT3-si cells versus YAP1-LV/STAT3-Ctrl cells
  sensitivity to cisplatin (cell viability): restored cisplatin sensitivity
[3]; H1299 and H1437 YAP1-sh cells versus control cells, 72 hours
  sensitivity to cisplatin (cell viability): increased sensitivities; also recorded: greater sensitivity
[3]; YAP1-sh/STAT3-LV cells (H1299 and H1437) versus YAP1-sh/STAT3-Ctrl cells, 72 hours, 5 cisplatin
  sensitivity to cisplatin (cell viability): restored cell proliferation and cisplatin resistance; also recorded: less sensitivity
[3]; YAP1-sh/STAT3-si cells (H1299 and H1437) versus single inhibition or control
  sensitivity to cisplatin (cell viability): greater sensitivity; also recorded: highest sensitivity
[4]; YAP1-LV cells versus control cells
  cells undergoing apoptosis: lower fractions; also recorded: substantially less apoptosis
[4]; YAP1-sh cells versus control cells
  cells undergoing apoptosis: higher fractions of apoptotic cells; also recorded: greater percentages of cells undergoing apoptosis

## IL6: human recombinant IL6 from PeproTech
pSTAT3
  pSTAT3 level: increased pSTAT3 expressions in a dose-dependent manner
pSTAT3; listed as recombinant human IL6
  pSTAT3 level: increased pSTAT3 levels dose dependently
